Reference: EPA's ToxRefDB 2

Legend:
mouse [1] = conditions: Carcinogenicity, b6c3f1, Oral, Feed, dose end: 24 month, group: systemic
rat [2] = conditions: Subchronic oral toxicity in rodents, wistar, Feed, dose end: 90 day, group: systemic
rat [3] = conditions: Prenatal developmental toxicity study, wistar, Oral, Gavage/Intubation, dose end: 19 GD
rabbit = conditions: Prenatal developmental toxicity study, himalayan, Oral, Gavage/Intubation, dose end: 28 GD
mouse [4] = conditions: Subchronic oral toxicity in rodents, b6c3f1, Feed, dose end: 90 day, group: systemic
rat [5] = conditions: Multigenerational reproductive toxicity study, sprague dawley, Oral, Feed, dose end: 2 generation
rat [6] = conditions: Combined chronic toxicity/carcinogenicity; wistar; Oral; Feed; dose end: 2 year; group: systemic; systemic / pathology microscopic / liver / cytoplasmic alteration + systemic / pathology microscopic / liver / hypertrophy + systemic / …
dog [7] = conditions: Chronic toxicity, beagle, Oral, Feed, dose end: 52 week, group: systemic
dog [8] = conditions: Subchronic oral toxicity in nonrodent, beagle, Feed, dose end: 106 day, group: systemic
rat [9] = conditions: Sub-acute repeat dose toxicity, sprague dawley, Oral, Gavage/Intubation, dose end: 7 day, group: systemic
primate [10] = conditions: Sub-acute repeat dose toxicity, Oral, Gavage/Intubation, dose end: 5 day, group: systemic
rat [11] = conditions: Sub-acute repeat dose toxicity, sprague dawley, Oral, Gavage/Intubation, dose end: 29 day, group: systemic
primate [12] = conditions: Sub-acute repeat dose toxicity; Oral; Gavage/Intubation; dose end: 28 day; group: systemic; systemic / clinical chemistry / cholesterol / cholesterol, direct ldl + systemic / hematology / erythrocyte (rbc) count differential / …
[13] = systemic / pathology microscopic / liver / degeneration + systemic / pathology microscopic / liver / fatty change + systemic / pathology …
[14] = systemic / pathology microscopic / lymph node / hemorrhage
[15] = systemic / clinical chemistry / triiodothyronine (t3) / triiodothyronine (t3), free
[16] = group: developmental, developmental / developmental malformation / bone / enlarged fontanel + developmental / developmental malformation / bone / incomplete …
[17] = group: maternal, reproductive / reproductive performance / resorptions / resorptions + systemic / in life observation / body weight / body weight + systemic…
[18] = group: developmental, systemic / in life observation / body weight / fetal weight
[19] = group: developmental, systemic / in life observation / body weight / fetal weight + developmental / developmental malformation / bone / full supernumerary + …
[20] = group: maternal, systemic / in life observation / body weight / body weight gain + systemic / in life observation / clinical signs / defecation + systemic / …
[21] = systemic / pathology microscopic / adrenal gland / fatty change + systemic / pathology microscopic / adrenal gland / hypertrophy
[22] = systemic / pathology microscopic / liver / hypertrophy
[23] = group: offspring, systemic / in life observation / body weight / offspring (pup) weight
[24] = group: parental, systemic / organ weight / liver / absolute + systemic / organ weight / liver / relative to body weight + systemic / organ weight / thyroid …
[25] = group: reproductive, reproductive / reproductive performance / dystocia / dystocia
[26] = systemic / organ weight / prostate / nos
[27] = systemic / organ weight / spleen / nos
[28] = systemic / clinical chemistry / [other] / [other] + systemic / clinical chemistry / epoxide hydrolase / epoxide hydrolase + systemic / …
[29] = systemic / clinical chemistry / epoxide hydrolase / epoxide hydrolase + systemic / pathology microscopic / prostate / secretory fluid
[30] = systemic / clinical chemistry / aspartate aminotransferase (ast/sgot) / aspartate aminotransferase (ast/sgot) + systemic / clinical …
[31] = systemic / clinical chemistry / gamma glutamyl transferase (ggt) / gamma glutamyl transferase (ggt) + systemic / pathology microscopic / …
[32] = systemic / hematology / blood clotting / blood clotting - activated partial thromboplastin time + systemic / hematology / fibrinogen / …
[33] = systemic / hematology / blood clotting / blood clotting - activated partial thromboplastin time + systemic / in life observation / food …
[34] = systemic / clinical chemistry / cytochrome p450, nos / cytochrome p450, nos + systemic / in life observation / clinical signs / alopecia + …
[35] = systemic / in life observation / clinical signs / salivation + systemic / organ weight / liver / absolute + systemic / pathology microscopic…

Q: Which results are given for `N#CN=C1SCCN1Cc1ccc(Cl)nc1` [Thiacloprid]?
A: LOAEL (mouse [1]; [13]): 234 mg/kg/day; NOAEL (mouse [1]; [13]): 5.7 mg/kg/day; LEL (mouse [1]; [14]): 5.7 mg/kg/day; NEL (mouse [1]; [14]): < 5.7 mg/kg/day; LEL (rat [2]; [15]): 1.9 mg/kg/day; NEL (rat [2]; [15]): < 1.9 mg/kg/day; LOAEL (rat [2]; systemic / in life observation / body weight / body weight): 28.6 mg/kg/day; NOAEL (rat [2]; systemic / in life observation / body weight / body weight + systemic / clinical chemistry / cholesterol / cholesterol + systemic / clinical…): 7.3 mg/kg/day; LEL (rat [3]; [16]): 50 mg/kg/day; LOAEL (rat [3]; [16]): 50 mg/kg/day; NEL (rat [3]; [16]): 10 mg/kg/day; NOAEL (rat [3]; [16]): 10 mg/kg/day; LEL (rat [3]; [17]): 50 mg/kg/day; LOAEL (rat [3]; [17]): 50 mg/kg/day; NEL (rat [3]; [17]): 10 mg/kg/day; NOAEL (rat [3]; [17]): 10 mg/kg/day; LEL (rabbit; [18]): 10 mg/kg/day; LOAEL (rabbit; [18]): 10 mg/kg/day; NEL (rabbit; [19]): 2 mg/kg/day; NOAEL (rabbit; [19]): 2 mg/kg/day; LEL (rabbit; [20]): 10 mg/kg/day; LOAEL (rabbit; [20]): 10 mg/kg/day; NEL (rabbit; [20]): 2 mg/kg/day; NOAEL (rabbit; [20]): 2 mg/kg/day; LOAEL (mouse [4]; [21]): 27.2 mg/kg/day; NOAEL (mouse [4]; [21]): < 27.2 mg/kg/day; LEL (mouse [4]; [22]): 19.9 mg/kg/day; NEL (mouse [4]; [22]): < 19.9 mg/kg/day; LEL (rat [5]; [23]): 21 mg/kg/day; LOAEL (rat [5]; [23]): 21 mg/kg/day; NEL (rat [5]; [23]): 3.5 mg/kg/day; NOAEL (rat [5]; [23]): 3.5 mg/kg/day; LOAEL (rat [5]; [24]): 21 mg/kg/day; NEL (rat [5]; [24]): 3.5 mg/kg/day; NOAEL (rat [5]; [24]): 3.5 mg/kg/day; LEL (rat [5]; group: parental, systemic / organ weight / liver / absolute + systemic / organ weight / liver / relative to body weight + systemic / pathology microscopic / …): 21 mg/kg/day; LEL (rat [5]; [25]): 26 mg/kg/day; LOAEL (rat [5]; [25]): 26 mg/kg/day; NEL (rat [5]; [25]): 4.2 mg/kg/day; NOAEL (rat [5]; [25]): 4.2 mg/kg/day; LEL (rat [6]): 2.5 mg/kg/day; LOAEL (rat [6]): 2.5 mg/kg/day; NEL (rat [6]): 1.2 mg/kg/day; NOAEL (rat [6]): 1.2 mg/kg/day; LOAEL (dog [7]; [26]): > 32.2 mg/kg/day; NOAEL (dog [7]; [26]): ≥ 32.2 mg/kg/day; LEL (dog [7]; [27]): 1.39 mg/kg/day; NEL (dog [7]; [27]): < 1.39 mg/kg/day; LOAEL (dog [8]; [28]): 34.7 mg/kg/day; NOAEL (dog [8]; [28]): 8.9 mg/kg/day; LEL (dog [8]; [29]): 8.5 mg/kg/day; NEL (dog [8]; [29]): < 8.5 mg/kg/day

Q: For `CC[C@@H]1C[C@H](N(Cc2cc(C(F)(F)F)cc(C(F)(F)F)c2)C(C)=O)c2cc(C(F)(F)F)ccc2N1C(=O)OC(C)C`, which LOAEL (rat [9]; [30]) is on record?
A: > 700 mg/kg/day

Q: What about the NOAEL (rat [9]; [30]) of the same molecule?
A: ≥ 700 mg/kg/day

Q: And the LEL (rat [9]; [31])?
A: 10 mg/kg/day

Q: And the NEL (rat [9]; [31])?
A: < 10 mg/kg/day

Q: And the LOAEL (primate [10]; [32])?
A: > 140 mg/kg/day

Q: And the NOAEL (primate [10]; [32])?
A: ≥ 140 mg/kg/day

Q: And the LEL (primate [10]; [33])?
A: 10 mg/kg/day

Q: And the NEL (primate [10]; [33])?
A: < 10 mg/kg/day

Q: What about the LOAEL (rat [11]; [34]) of the same molecule?
A: > 125 mg/kg/day

Q: And the NOAEL (rat [11]; [34])?
A: ≥ 125 mg/kg/day

Q: What about the LEL (rat [11]; [35]) of the same molecule?
A: 2 mg/kg/day

Q: And the NEL (rat [11]; [35])?
A: < 2 mg/kg/day

Q: And the LEL (primate [12])?
A: 10 mg/kg/day

Q: What about the LOAEL (primate [12]) of the same molecule?
A: > 140 mg/kg/day

Q: What about the NEL (primate [12]) of the same molecule?
A: < 10 mg/kg/day

Q: What about the NOAEL (primate [12]) of the same molecule?
A: ≥ 140 mg/kg/day
